Measured values from patent publication US20080004272A1, “Compositions and methods for modulating gated ion channels” (PainCeptor Pharma Corporation, priority 2006, published 2008).

Key:
[1] = target: T1, ASIC1a (Homo sapiens, UniProt P78348); test: Two-electrode voltage clamp in Xenopus laevis oocytes (Xo), acid-induced currents; format: cell-based; design: expressed in transfected cells; host or cells: Xenopus laevis oocytes (nuclear microinjection of expression vector such as pcDNA3); details: for inhibition at 50 µM: Xenopus oocytes, read-out: % inh. at 50 μM (Xo)
T1 sequence (P78348 1-528): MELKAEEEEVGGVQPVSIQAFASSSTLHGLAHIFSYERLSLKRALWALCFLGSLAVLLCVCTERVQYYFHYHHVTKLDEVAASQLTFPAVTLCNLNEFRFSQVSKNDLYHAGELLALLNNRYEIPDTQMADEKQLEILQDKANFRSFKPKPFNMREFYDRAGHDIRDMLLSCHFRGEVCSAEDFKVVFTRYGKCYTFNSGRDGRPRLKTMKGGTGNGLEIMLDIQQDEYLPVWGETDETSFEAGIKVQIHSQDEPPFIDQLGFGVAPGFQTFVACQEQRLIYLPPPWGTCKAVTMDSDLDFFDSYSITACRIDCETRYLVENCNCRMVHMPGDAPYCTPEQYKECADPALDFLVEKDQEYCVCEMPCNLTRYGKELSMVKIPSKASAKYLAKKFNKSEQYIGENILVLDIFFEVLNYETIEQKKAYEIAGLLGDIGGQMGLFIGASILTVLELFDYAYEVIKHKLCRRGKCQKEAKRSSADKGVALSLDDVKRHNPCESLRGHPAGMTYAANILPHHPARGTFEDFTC
How it was run: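 Defolliculated oocytes were nuclear-injected with channel cDNA and expressed for 2–4 days at 19 °C. Under two-electrode voltage clamp at room temperature, oocytes were superfused with pH 7.4 Ringer, and currents were evoked by switching to acidic MES Ringer (pH<7). Compound was present in both control and acidic solutions.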

[2] = target: T1, ASIC1a; test: Calcium imaging of MES-induced calcium response (FLIPR); format: cell-based; design: host or cells: HEK293

Structure (SMILES) | IC50 [1] [µM] | inhibition at 50 µM [1] [%] | IC50 [2] [µM] | IC50 ([1]; Xenopus laevis oocytes, three point dose-response, read-out: IC50, half maximal inhibition of the acid-evoked response in hASIC1a) [µM] | IC50 ([2]; ASIC1a expressing HEK293 cells, MES-induced calcium response, read-out: IC50 (FLIPR)) [µM]
CN1CCc2c(-c3ccccc3)cc(C#N)c(N)c2C1 [Compound 203, 8-Amino-2-methyl-5-phenyl-1,2,3,4-tetrahydro-isoquinoline-7-carbonitrile] | 6.2 | > 70 | < 10 | – | –
COc1ccc(F)cc1-c1cc(C#N)c(N)c2c1CCN(C)C2 [Compound 206, 8-Amino-5-(5-fluoro-2-methoxy-phenyl)-2-methyl-1,2,3,4-tetrahydro-isoquinoline-7-carbonitrile] | – | 50 to 70 | – | 34 | 20 to 40
